Laboratory results as given in paper PMC6683298, “Identifying potential novel drugs against Helicobacter pylori by targeting the essential response regulator HsrA” (Scientific Reports, 2019).

Molecular target: T1, HsrA response regulator (HP1043) (Helicobacter pylori, UniProt O25684)
T1 construct: gene HP_1043; N-terminal 6xHis tag, removed with thrombin; 223 residues; symmetric dimer
T1 sequence (O25684 1-223): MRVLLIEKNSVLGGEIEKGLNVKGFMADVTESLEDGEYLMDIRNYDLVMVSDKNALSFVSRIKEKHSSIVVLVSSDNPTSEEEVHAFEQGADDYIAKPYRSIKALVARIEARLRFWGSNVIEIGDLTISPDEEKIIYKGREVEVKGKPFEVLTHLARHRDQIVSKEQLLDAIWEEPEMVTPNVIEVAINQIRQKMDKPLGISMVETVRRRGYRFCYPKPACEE
Assay: isothermal titration calorimetry
Format: binding
Details: read-out: ITC^a / Kd
From the text: isothermal titration calorimetry on HsrA response regulator (HP1043)

Structure (SMILES)	Kd
O=c1cc(-c2ccc(O)cc2)oc2cc(O)cc(O)c12 [apigenin]	20 µM
O=c1cc(-c2ccccc2)oc2cc(O)cc(O)c12 [chrysin]	17 µM
O=c1c(O)c(-c2ccc(O)cc2)oc2cc(O)cc(O)c12 [kaempferol]	33 µM
COc1ccc([C@@H]2CC(=O)c3c(O)cc(O)cc3O2)cc1O [hesperetin]	26 µM
